This is an account of results in patent US20250249010A1, “METHODS FOR TREATING PRIMARY MEMBRANOUS NEPHROPATHY” (BEIGENE SWITZERLAND GMBH, priority 2022, published 2025).

Data set [1] has as its system patients with B-cell malignancies. The note with it: 320 mg per day (160 mg twice a day); cited from earlier work.
A further data set has as its system CYP2C19. Description: Clinical drug-drug interaction study (Study BGB-3111-108), CYP2C19. Type of data set: in vivo. Conditions: clinical drug-drug interaction study BGB-3111-108.
Another data set has as its system CYP3A4. In words: Clinical drug-drug interaction study (Study BGB-3111-108), CYP3A4. Type of data set: in vivo. The note with it: clinical drug-drug interaction study BGB-3111-108.

On to `C=CC(=O)N1CCC([C@@H]2CCNc3c(C(N)=O)c(-c4ccc(Oc5ccccc5)cc4)nn32)CC1` [zanubrutinib, (S)-7-(1-acryloylpiperidin-4-yl)-2-(4-phenoxyphenyl)-4,5,6,7-tetrahydropyrazolo[1,5-a]pyrimidine-3-carboxamide], for which, in data set [1], the “efficacy in patients with B-cell malignancies” value is on record as “efficacious” and the “tolerability in patients with B-cell malignancies” value is “well tolerated”. The CYP2C19 induction entry with CYP2C19 is listed as “mild inducer”. The CYP3A4 induction result in the data set on CYP3A4 is on record as “mild inducer”.
